{
  "source": "ChEMBL document CHEMBL1132471",
  "about": "“Vancomycin binding to low-affinity ligands: delineating a minimum set of interactions necessary for high-affinity binding” (J Med Chem, 1999)",
  "key": {"[1]": {"assay": "Affinity for Vancomycin (Exp II)"}, "[2]": {"assay": "Affinity for Vancomycin (Exp I)"}},
  "data": [
    {"smiles": "CC(=O)N[C@H](C)C(=O)O", "values": [
      {"measurement": "Affinity", "setting": "[1]", "value": 300, "unit": "M⁻¹"}
    ]},
    {"smiles": "C[C@@H](O)C(=O)O", "values": [
      {"measurement": "Affinity", "setting": "[1]", "value": 80, "unit": "M⁻¹"}
    ]},
    {"smiles": "CC(=O)O[C@H](C)C(=O)O", "values": [
      {"measurement": "Affinity", "setting": "[2]", "value": 40, "unit": "M⁻¹"}
    ]},
    {"smiles": "CC(=O)NCC(=O)O", "values": [
      {"measurement": "Affinity", "setting": "[1]", "value": 80, "unit": "M⁻¹"}
    ]},
    {"smiles": "CC(=O)O", "values": [
      {"measurement": "Affinity", "setting": "[1]", "value": 30, "unit": "M⁻¹"},
      {"measurement": "Affinity", "setting": "[2]", "value": 15, "unit": "M⁻¹"}
    ]}
  ]
}
